{"source": "patent US20230293518A1", "about": "(Edgewise Therapeutics, Inc., priority 2020, published 2023)", "data": [{"molecular_target": "skeletal myofibrils (myosin ATPase)", "assay": "Skeletal Myofibril ATPase Assay", "assay_type": "biochemical", "conditions": "Table 4A", "experimental": "(§1) Example 12. Skeletal Myofibril ATPase Assay\n(§2) Overview: Myosin ATPase activity is assessed by using a coupled reaction system, in which ADP generated by the myosin ATPase function is coupled to the disappearance of NADH through the pyruvate kinase/lactate dehydrogenase (PK-LDH) system. ATPase activity produces ADP, which is used as a substrate for PK to produce pyruvate and regenerate ATP. The pyruvate is then used as a substrate by LDH to oxidize NADH to NAD+. The rate of the reaction is monitored through the time-dependent disappearance of NADH using absorbance at 340 nm. Inhibition of ATPase activity by the assayed compounds is indicated by a reduced rate of NADH loss, relative to vehicle-treated controls, over the experimental time window. To assess the selectivity of the assayed compounds for skeletal myofibrils, the compounds are counter-screened in cardiac myofibrils.\n(§3) Materials: The following stock solutions and reagents were used in the Skeletal Myofibril ATPase Assay:\n(§4) Stock Solutions of pCa buffer. Combine PIPES, CaCl2, and EGTA solutions with 70 mL of water. Adjust pH to 7.0 and bring final volume to 100 mL.\n(§5) Buffer A & Buffer B. Buffers were stored on ice until use.\n(§6) Skeletal Myofibril ATPase Assay Procedure: BSA, ATP, NADH, PEP, and DTT solutions were thawed at room temperature, then transferred to ice. Pellet-frozen myofibrils were transferred with approximately twice the required volume into a sufficiently large tube and capped. Myofibrils were thawed by rolling in a water bath for approximately 15 min at room temperature and cooled on ice. Buffers A and B were prepared by adjusting volumes as necessary for required number of wells and stored on ice. 0.5 μL of the compounds to be assayed were added into wells. 25 μL of Buffer A was dispensed into the wells, followed by 25 μL of Buffer B. The wells were measured for absorbance at 340 nm, using a kinetic protocol in which the wells are read every 1.5-2 min for 45 min. The slope of the data was approximated by subtracting the minimum absorbance value from the maximum value for each well. This was accomplished either in the SoftMax Pro software or in a spreadsheet program such as Excel. Using GraphPad Prism 8.0, the data was normalized by assigning a value of 100% to the 1% DMSO vehicle wells. Typically, a normalized 0% value was simply assigned to a (Max−Min) value of 0. The normalized data was fit to a Four Parameter Logistic sigmoidal equation, constraining the bottom to be 0 or greater. Compounds of Table 1, 2, and 3 were tested and results of the assay appear in Tables 4a-4c. A=IC50 is less than or equal to 10 μM; B═IC50 is greater than 10 μM and less than 100 μM; C═IC50 is greater than 100 μM.", "units": {"IC50": "µM"}, "values": [{"smiles": "CCNC(=O)Cn1nc(-c2ccc(OC3CC(F)(F)C3)nc2)ccc1=O", "note": "[Compound I-75, 2-(3-(6-(3,3-difluorocyclobutoxy)pyridin-3-yl)-6-oxopyridazin-1(6H)-yl)-N-ethylacetamide]", "IC50": "10 to 100"}, {"smiles": "CCNC(=O)Cn1nc(-c2ccc(NC34CC(CO)(C3)C4)nc2)ccc1=O", "note": "[Compound I-58, N-ethyl-2-(3-(6-((3-(hydroxymethyl)bicyclo[1.1.1]pentan-1-yl)amino)pyridin-3-yl)-6-oxopyridazin-1(6H)-yl)acetamide]", "IC50": "10 to 100"}, {"smiles": "CCNC(=O)Cn1nc(-c2cnc(NC34CC(C3)C4)nc2)ccc1=O", "note": "[Compound I-59, 2-[3-(2-[bicyclo[1.1.1]pentan-1-ylamino]pyrimidin-5-yl)-6-oxopyridazin-1-yl]-N-ethylacetamide]", "IC50": "< 10"}, {"smiles": "CCNC(=O)Cn1nc(-c2ccc(N3CC(C)(C)C3)nc2)ccc1=O", "note": "[Compound I-18, 2-(3-(6-(3,3-dimethylazetidin-1-yl)pyridin-3-yl)-6-oxopyridazin-1(6H)-yl)-N-ethylacetamide]", "IC50": "10 to 100"}, {"smiles": "CCNC(=O)Cn1nc(-c2ccc(OC(C)C)nc2)ccc1=O", "note": "[Compound I-27, N-ethyl-2-(3-(6-isopropoxypyridin-3-yl)-6-oxopyridazin-1(6H)-yl)acetamide]", "IC50": "> 100"}, {"smiles": "C[C@H](NC(=O)Cn1nc(-c2ccc(OC(F)F)nc2)ccc1=O)c1ccnn1C", "note": "[Compound I-29, (S)-2-(3-(6-(difluoromethoxy)pyridin-3-yl)-6-oxopyridazin-1(6H)-yl)-N-(1-(1-methyl-1H-pyrazol-5-yl)ethyl)acetamide]", "IC50": "> 100"}, {"smiles": "CCCOc1ncc(-c2ccc(=O)n(CC(=O)NC3CCC3)n2)cn1", "note": "[Compound I-73, N-cyclobutyl-2-(6-oxo-3-(2-propoxypyrimidin-5-yl)pyridazin-1(6H)-yl)acetamide]", "IC50": "< 10"}, {"smiles": "O=C(Cn1nc(-c2ccc(OC(F)F)nc2)ccc1=O)NC1CC(F)(F)C1", "note": "[Compound I-33, N-(3,3-difluorocyclobutyl)-2-(3-(6-(difluoromethoxy)pyridin-3-yl)-6-oxopyridazin-1(6H)-yl)acetamide]", "IC50": "> 100"}, {"smiles": "O=C(Cn1nc(-c2ccc(NC3CCC3)nc2)ccc1=O)NC1CCC1", "note": "[Compound I-52, N-cyclobutyl-2-(3-(6-(cyclobutylamino)pyridin-3-yl)-6-oxopyridazin-1(6H)-yl)acetamide]", "IC50": "< 10"}, {"smiles": "CCNC(=O)Cn1nc(-c2cnc(Nc3ccc(F)cc3)nc2)ccc1=O", "note": "[Compound I-2, N-ethyl-2-(3-(2-((4-fluorophenyl)amino)pyrimidin-5-yl)-6-oxopyridazin-1(6H)-yl)acetamide]", "IC50": "< 10"}]}, {"molecular_target": "skeletal myofibrils (myosin ATPase)", "assay": "Skeletal Myofibril ATPase Assay", "assay_type": "biochemical", "conditions": "Table 4B", "experimental": "as §1, §2, §3, §4, §5, §6", "units": {"IC50": "µM"}, "values": [{"smiles": "O=C(Cn1nc(-c2ccc(OCC(F)(F)F)cc2)ccc1=O)N1CC(c2ccccc2)C1", "note": "[II-22, 2-(2-oxo-2-(3-phenylazetidin-1-yl)ethyl)-6-(4-(2,2,2-trifluoroethoxy)phenyl)pyridazin-3(2H)-one]", "IC50": "< 10"}, {"smiles": "CCNC(=O)Cn1nc(-c2ccc(OCC(F)F)cc2)ccc1=O", "note": "[II-7, 2-(3-(4-(2,2-difluoroethoxy)phenyl)-6-oxopyridazin-1(6H)-yl)-N-ethylacetamide]", "IC50": "< 10"}, {"smiles": "O=C(Cn1nc(-c2ccc(OCC(F)(F)F)cc2)ccc1=O)NCc1ccc[nH]c1=O", "note": "[II-26, N-((2-oxo-1,2-dihydropyridin-3-yl)methyl)-2-(6-oxo-3-(4-(2,2,2-trifluoroethoxy)phenyl)pyridazin-1(6H)-yl)acetamide]", "IC50": "10 to 100"}, {"smiles": "CC(C)CNC(=O)Cn1nc(-c2ccc(OC(F)F)cc2)ccc1=O", "note": "[II-13, 2-(3-(4-(difluoromethoxy)phenyl)-6-oxopyridazin-1(6H)-yl)-N-isobutylacetamide]", "IC50": "10 to 100"}, {"smiles": "O=C(Cn1nc(-c2ccc(OCC(F)(F)F)cc2)ccc1=O)N1CCC1c1ccccc1", "note": "(centres unmarked) [II-23, 2-(2-oxo-2-(2-phenylazetidin-1-yl)ethyl)-6-(4-(2,2,2-trifluoroethoxy)phenyl)pyridazin-3(2H)-one]", "IC50": "< 10"}]}, {"molecular_target": "skeletal myofibrils (myosin ATPase)", "assay": "Skeletal Myofibril ATPase Assay", "assay_type": "biochemical", "conditions": "Table 4C", "experimental": "as §1, §2, §3, §4, §5, §6", "units": {"IC50": "µM"}, "values": [{"smiles": "Cc1ccc(-c2ccc(=O)n(CC(=O)NC3CCCCC3)n2)cc1", "note": "[IIIc-6, N-cyclohexyl-2-(6-oxo-3-(p-tolyl)pyridazin-1(6H)-yl)acetamide]", "IC50": "10 to 100"}, {"smiles": "COc1ccc(-c2ccc(=O)n(CC(=O)Nc3cc(Cl)ccc3Cl)n2)c(F)c1", "note": "[IIIb-13, N-(2,5-dichlorophenyl)-2-(3-(2-fluoro-4-methoxyphenyl)-6-oxopyridazin-1(6H)-yl)acetamide]", "IC50": "< 10"}, {"smiles": "CC(C)c1cccc(NC(=O)Cn2nc(-c3ccc4c(c3)OCCCO4)ccc2=O)c1", "note": "[IIIb-5, 2-(3-(3,4-dihydro-2H-benzo[b][1,4]dioxepin-7-yl)-6-oxopyridazin-1(6H)-yl)-N-(3-isopropylphenyl)acetamide]", "IC50": "< 10"}, {"smiles": "COc1ccc(-c2ccc(=O)n(CC(=O)NCc3ccccc3)n2)cc1", "note": "[IIIb-20, N-benzyl-2-(3-(4-methoxyphenyl)-6-oxopyridazin-1(6H)-yl)acetamide]", "IC50": "10 to 100"}, {"smiles": "O=C(Cn1nc(-c2ccccc2)ccc1=O)Nc1ccc(Cl)cc1Cl", "note": "[IIIc-54, N-(2,4-dichlorophenyl)-2-(6-oxo-3-phenylpyridazin-1(6H)-yl)acetamide]", "IC50": "10 to 100"}, {"smiles": "CCc1cccc(NC(=O)Cn2nc(-c3ccc(C)cc3)ccc2=O)c1", "note": "[IIIc-1, N-(3-ethylphenyl)-2-(6-oxo-3-(p-tolyl)pyridazin-1(6H)-yl)acetamide]", "IC50": "< 10"}, {"smiles": "COc1ccc(-c2ccc(=O)n(CC(=O)Nc3ccc(Cl)cc3Cl)n2)cc1", "note": "[IIIb-11, N-(2,4-dichlorophenyl)-2-(3-(4-methoxyphenyl)-6-oxopyridazin-1(6H)-yl)acetamide]", "IC50": "< 10"}, {"smiles": "CC(C)Oc1ccc(-c2ccc(=O)n(CC(=O)NCc3ccccc3Cl)n2)cc1", "note": "[IIIa-2, N-(2-chlorobenzyl)-2-(3-(4-isopropoxyphenyl)-6-oxopyridazin-1(6H)-yl)acetamide]", "IC50": "< 10"}, {"smiles": "COc1ccc(-c2ccc(=O)n(CC(=O)N(C)c3ccccc3)n2)cc1", "note": "[IIIc-7, 2-(3-(4-methoxyphenyl)-6-oxopyridazin-1(6H)-yl)-N-methyl-N-phenylacetamide]", "IC50": "10 to 100"}, {"smiles": "COc1ccc(-c2ccc(=O)n(CC(=O)Nc3ccc4c(c3)OCO4)n2)cc1", "note": "[IIIb-28, N-(benzo[d][1,3]dioxol-5-yl)-2-(3-(4-methoxyphenyl)-6-oxopyridazin-1(6H)-yl)acetamide]", "IC50": "10 to 100"}, {"smiles": "CCNC(=O)Cn1nc(-c2ccc(OC)cc2)ccc1=O", "note": "[IIIa-3, N-ethyl-2-(3-(4-methoxyphenyl)-6-oxopyridazin-1(6H)-yl)acetamide]", "IC50": "< 10"}, {"smiles": "COc1ccc(-c2ccc(=O)n(CC(=O)NC3CCCCC3)n2)cc1", "note": "[IIIb-41, N-cyclohexyl-2-(3-(4-methoxyphenyl)-6-oxopyridazin-1(6H)-yl)acetamide]", "IC50": "> 100"}, {"smiles": "COc1ccc(-c2ccc(=O)n(CC(=O)NCC3CCOCC3)n2)cc1", "note": "[IIIa-29, 2-(3-(4-methoxyphenyl)-6-oxopyridazin-1(6H)-yl)-N-((tetrahydro-2H-pyran-4-yl)methyl) acetamide]", "IC50": "> 100"}, {"smiles": "COc1ccc(-c2ccc(=O)n(CC(=O)NCc3ccccc3C)n2)cc1", "note": "[IIIa-16, 2-(3-(4-methoxyphenyl)-6-oxopyridazin-1(6H)-yl)-N-(2-methylbenzyl) acetamide]", "IC50": "< 10"}, {"smiles": "CCOc1ccc(-c2ccc(=O)n(CC(=O)NC(C)C)n2)cc1", "note": "[IIIa-6, 2-(3-(4-ethoxyphenyl)-6-oxopyridazin-1(6H)-yl)-N-isopropylacetamide]", "IC50": "< 10"}, {"smiles": "O=C(Cn1nc(-c2ccc3c(c2)OCCCO3)ccc1=O)NC1CCCCCC1", "note": "[IIIb-24, N-cycloheptyl-2-(3-(3,4-dihydro-2H-benzo[b][1,4]dioxepin-7-yl)-6-oxopyridazin-1(6H)-yl)acetamide]", "IC50": "10 to 100"}, {"smiles": "COc1ccc(-c2ccc(=O)n(CC(=O)Nc3cc(OC)ccc3OC)n2)cc1", "note": "[IIIb-25, N-(2,5-dimethoxyphenyl)-2-(3-(4-methoxyphenyl)-6-oxopyridazin-1(6H)-yl)acetamide]", "IC50": "10 to 100"}, {"smiles": "COc1ccc(NC(=O)Cn2nc(-c3ccc(F)cc3)ccc2=O)c(OC)c1", "note": "[IIIc-31, N-(2,4-dimethoxyphenyl)-2-(3-(4-fluorophenyl)-6-oxopyridazin-1(6H)-yl)acetamide]", "IC50": "10 to 100"}, {"smiles": "COc1ccc(-c2ccc(=O)n(CC(=O)NCc3ccc(OC)c(OC)c3)n2)cc1", "note": "[IIIb-49, N-(3,4-dimethoxybenzyl)-2-(3-(4-methoxyphenyl)-6-oxopyridazin-1(6H)-yl)acetamide]", "IC50": "> 100"}, {"smiles": "COc1ccc(-c2ccc(=O)n(CC(=O)NCc3cnoc3)n2)cc1", "note": "[IIIa-31, N-(isoxazol-4-ylmethyl)-2-(3-(4-methoxyphenyl)-6-oxopyridazin-1(6H)-yl)acetamide]", "IC50": "> 100"}]}]}
